Data published in patent publication US20140377241A1, “BIOPREPARATION BALIS FOR THE PROPHYLAXIS AND TREATMENT OF INFECTIOUS DISEASES” (priority 2010, published 2014).
Read-outs that look alike come from different tables or passages of the source.

Assays:
B. subtilis VKPM B-8611 = assay: Sensitivity to antibiotics of the Bacillus type strains (inhibited growth area); type: cell-based
[1] = test system: B. licheniformis VKPM B-8610; assay: as above; type: cell-based, Bacillus licheniformis

| Compound | Diameter of the culture's inhibited growth area (B. subtilis VKPM B-8611) [mm] | Diameter of the culture's inhibited growth area ([1]; B. licheniformis VKPM B-8610) | Diameter of the culture's inhibited growth area [1] [mm] |
| --- | --- | --- | --- |
| COc1cc(Cc2cnc(N)nc2N)cc(OC)c1OC [Trimethoprim] | 23 ± 0.1 | 25 ± 0.2 mm | – |
| CC1(C)S[C@@H]2[C@H](NC(=O)[C@H](NC(=O)N3CCN(S(C)(=O)=O)C3=O)c3ccccc3)C(=O)N2[C@H]1C(=O)O [Mezlocillin] | 21 ± 0.2 | 15 ± 0.2 mm | – |
| CC1(C)S[C@@H]2[C@H](NC(=O)[C@H](C(=O)O)c3ccsc3)C(=O)N2[C@H]1C(=O)O [Ticarcillin] | 25 ± 0.4 | 21 ± 0.2 mm | – |
| Cn1nnnc1SCC1=C(C(=O)O)N2C(=O)[C@@H](NC(=O)[C@H](O)c3ccccc3)[C@H]2SC1 [Cefamandole] | 35 ± 0.3 | 15 ± 0.1 mm | – |
| Polymyxin B | 11 ± 0.1 | 10 ± 0.2 mm | – |
| CN(C)[C@@H]1C(O)=C(C(N)=O)C(=O)[C@@]2(O)C(O)=C3C(=O)c4c(O)cccc4[C@@](C)(O)[C@H]3C[C@@H]12 [Tetracycline] | 26 ± 0.1 | – | 24 ± 0.1 |
| CCN1CCN(C(=O)N[C@@H](C(=O)N[C@@H]2C(=O)N3C(C(=O)O)=C(CSc4nnnn4C)CS[C@H]23)c2ccc(O)cc2)C(=O)C1=O [Cefoperazone] | 15 ± 0.2 | 13 ± 0.1 mm | – |
| CC(=O)OCC1=C(C(=O)O)N2C(=O)[C@@H](NC(=O)Cc3cccs3)[C@H]2SC1 [Cephalothin] | 35 ± 0.1 | 21 ± 0.3 mm | – |
| CCn1cc(C(=O)O)c(=O)c2cc(F)c(N3CCNCC3)cc21 [Norfloxacin] | 24 ± 0.2 | 25 ± 0.2 mm | – |
| CO[C@@]1(NC(=O)C(C(=O)O)c2ccc(O)cc2)C(=O)N2C(C(=O)O)=C(CSc3nnnn3C)CO[C@@H]21 (stereo partly shown) [Moxalactam] | 11 ± 0.2 | 12 ± 0.3 mm | – |
| CN[C@H](CC(C)C)C(=O)N[C@H]1C(=O)N[C@@H](CC(N)=O)C(=O)N[C@H]2C(=O)N[C@H]3C(=O)N[C@H](C(=O)N[C@H](C(=O)O)c4cc(O)cc(O)c4-c4cc3ccc4O)[C@H](O)c3ccc(c(Cl)c3)Oc3cc2cc(c3O[C@@H]2O[C@H](CO)[C@@H](O)[C@H](O)[C@H]2O[C@H]2C[C@](C)(N)[C@H](O)[C@H](C)O2)Oc2ccc(cc2Cl)[C@H]1O [Vancomycin] | 12 ± 0.1 | 10 ± 0.1 mm | – |
| NC[C@H]1O[C@H](O[C@H]2[C@H](O)[C@@H](O[C@H]3O[C@H](CO)[C@@H](O)[C@H](N)[C@H]3O)[C@H](N)C[C@@H]2N)[C@H](O)[C@@H](O)[C@@H]1O [Kanamycin] | 22 ± 0.2 | 21 ± 0.1 mm | – |
| CO[C@@]1(NC(=O)Cc2cccs2)C(=O)N2C(C(=O)O)=C(COC(N)=O)CS[C@@H]21 [Cefoxitin] | 18 ± 0.1 | 13 ± 0.1 mm | – |
| CCn1cc(C(=O)O)c(=O)c2ccc(C)nc21 [Nalidixic acid] | 21 ± 0.1 | 15 ± 0.1 mm | – |
| Cc1onc(-c2ccccc2)c1C(=O)N[C@@H]1C(=O)N2[C@@H]1SC(C)(C)[C@@H]2C(=O)O [Oxacillin] | 15 ± 0.3 | 11 ± 0.1 mm | – |
| Gentamicin | 25 ± 0.3 | 19 ± 0.2 mm | – |
| NC[C@H]1O[C@H](O[C@H]2[C@H](O)[C@@H](O[C@H]3O[C@H](CO)[C@@H](O)[C@H](N)[C@H]3O)[C@H](N)C[C@@H]2N)[C@H](N)C[C@@H]1O [Tobramycin] | 25 ± 0.1 | 20 ± 0.2 mm | – |
| O=C(N[C@H](CO)[C@H](O)c1ccc([N+](=O)[O-])cc1)C(Cl)Cl [Chloramphenicol] | 18 ± 0.3 | 10 ± 0.1 mm | – |

| Compound | Diameter of the culture's inhibited growth area (B. subtilis VKPM B-8611) [mm] | Diameter of the culture's inhibited growth area ([1]; B. licheniformis VKPM B-8610) | Diameter of the culture's inhibited growth area [1] [mm] |
| --- | --- | --- | --- |
| Cc1nnc(SCC2=C(C(=O)O)N3C(=O)[C@@H](NC(=O)Cn4cnnn4)[C@H]3SC2)s1 [Cefazolin] | 25 ± 0.2 | 19 ± 0.2 mm | – |
| CO/N=C(\C(=O)N[C@@H]1C(=O)N2C(C(=O)O)=CCS[C@H]12)c1csc(N)n1 [Ceftizoxime] | 3 ± 0.1 | 11 ± 0.1 mm | – |
| C[C@@H](O)[C@H]1C(=O)N2C(C(=O)O)=C(SCCN=CN)C[C@H]12 [Imipenem] | 38 ± 0.2 | 30 ± 0.1 mm | – |
| CC1(C)S[C@@H]2[C@H](NC(=O)C(C(=O)O)c3ccccc3)C(=O)N2[C@H]1C(=O)O (stereo partly shown) [Carbenicillin] | 23 ± 0.5 | 20 ± 0.1 mm | – |
| CC1(C)S[C@@H]2[C@H](NC(=O)[C@H](NC(=O)N3CCNC3=O)c3ccccc3)C(=O)N2[C@H]1C(=O)O [Azlocillin] | 19 ± 0.1 | 16 ± 0.1 mm | – |
| CO/N=C(\C(=O)N[C@@H]1C(=O)N2C(C(=O)O)=C(COC(C)=O)CS[C@H]12)c1csc(N)n1 [Cefotaxime] | 15 ± 0.1 | 9 ± 0.1 mm | – |
| NCC[C@H](O)C(=O)N[C@@H]1C[C@H](N)[C@@H](O[C@H]2O[C@H](CN)[C@@H](O)[C@H](O)[C@H]2O)[C@H](O)[C@H]1O[C@H]1O[C@H](CO)[C@@H](O)[C@H](N)[C@H]1O [Amikacin] | 22 ± 0.3 | 17 ± 0.2 mm | – |
| CO/N=C(\C(=O)N[C@@H]1C(=O)N2C(C(=O)O)=C(COC(N)=O)CS[C@H]12)c1ccco1 [Cefuroxime] | 2 ± 0.1 | 3 ± 0.1 mm | – |
| CC1(C)S[C@@H]2[C@H](NC(=O)[C@H](N)c3ccc(O)cc3)C(=O)N2[C@H]1C(=O)O [Amoxicillin] | 19 ± 0.2 | 16 ± 0.1 mm | – |
| CC(C)(O/N=C(\C(=O)N[C@@H]1C(=O)N2C(C(=O)[O-])=C(C[n+]3ccccc3)CS[C@H]12)c1csc(N)n1)C(=O)O [Ceftazidime] | 6 ± 0.3 | 13 ± 0.2 mm | – |
| CC1(C)S[C@@H]2[C@H](NC(=O)Cc3ccccc3)C(=O)N2[C@H]1C(=O)O [Benzylpenicillin] | 7 ± 0.1 | 3 ± 0.2 mm | – |
| CCC[C@@H]1C[C@@H](C(=O)N[C@@H]([C@H]2O[C@H](SC)[C@H](O)[C@@H](O)[C@H]2O)[C@H](C)Cl)N(C)C1 [Clindamycin] | 9 ± 0.2 | 12 ± 0.1 mm | – |
| COc1cccc(OC)c1C(=O)N[C@@H]1C(=O)N2[C@@H]1SC(C)(C)[C@@H]2C(=O)O [Methicillin] | 20 ± 0.1 | 10 ± 0.1 mm | – |
| CCN1CCN(C(=O)N[C@@H](C(=O)N[C@@H]2C(=O)N3[C@@H]2SC(C)(C)[C@@H]3C(=O)O)c2ccccc2)C(=O)C1=O [Piperacillin] | 15 ± 0.3 | 11 ± 0.1 mm | – |
| CC1(C)S[C@@H]2[C@H](NC(=O)[C@H](N)c3ccccc3)C(=O)N2[C@H]1C(=O)O [Ampicillin] | 11 ± 0.2 | ∘ | – |
| CO/N=C(\C(=O)N[C@@H]1C(=O)N2C(C(=O)O)=C(CSc3nc(=O)c(=O)[nH]n3C)CS[C@H]12)c1csc(N)n1 [Ceftriaxone] | 20 ± 0.4 | 12 ± 0.2 mm | – |
| O=C1CN(/N=C/c2ccc([N+](=O)[O-])o2)C(=O)N1 [Nitrofurantoin] | 15 ± 0.2 | 20 ± 0.1 mm | – |
